According to patent US11541033B2, “Agent for preventing or treating Alzheimer's disease” (FUJIFILM Toyama Chemical Co., Ltd., priority 2017, dated 2023):

How the values were obtained:
Type in all cases: in vivo, human
[1] = tested on: mild to moderate AD patients; test: Test Example 1: phase II placebo-controlled trial, ADAS-cog change from baseline
Description: (§1) Test Example 1 Multicenter Randomized Double-Blind Phase II Placebo-Controlled Trial for Assessing Effectiveness and Safety of Compound a in Mild to Moderate AD Patients
(§2) Patients were screened in a period from 42 days before treatment assignment to the assignment based on the following selection criteria. Patients matched (484 patients) were randomly divided into the following 3 groups and the trial was started.
(§3) • Patients who were probable AD and are 55 years old or older and 85 years old or younger at the time of obtaining consent of screening. • Patients with an MMSE score of 12 to 22 at the time of screening • Patients with a Modified Hachinski Ischemia Scale score of 4 or less • Patients who have been treated with a donepezil hydrochloride or rivastigmine transdermal system for at least 4 months before the baseline and with a stable dose thereof for 3 months before the baseline. • In the case of patients who have received memantine in addition to being treated with a donepezil hydrochloride or rivastigmine transdermal system, patients who have been treated with memantine for at least 4 months before the baseline and with a stable dose thereof for 3 months before the baseline. • Patients whose brain MRI or CT results match AD at the time of screening Organization of Groups: (1) High dose group: 224 mg of a test compound (160 mg in terms of Compound A) was orally administered once a day for 4 weeks and then 448 mg of a test compound (320 mg in terms of Compound A) was orally administered once a day for 48 weeks (158 patients) (2) Low dose group: 224 mg of a test compound (160 mg in terms of Compound A) was orally administered once a day for 52 weeks (166 patients) (3) Placebo group: placebo was orally administered once a day for 52 weeks (158 patients) Method of assessment: (1) ADAS-cog
(§4) The ADAS-cog score of the subject was evaluated at the baseline (before administration of investigational drug on the first day of administration) and after 52 weeks and the cognitive function was assessed based on the change from the baseline.
(§5) Changes in the ADAS-cog score and the ADCS-ADL score after 52 weeks from the baseline were compared between the high dose group and the placebo group, and between the low dose group and the placebo group based on the Mixed-effect Models for Repeated Measures (MMRM) with a significance level of 5%. For models, fixed effects included the treatment groups and time, while covariates included age, the baseline of ADAS-cog or ADCS-ADL, the baseline of MMSE and ApoE4 genotype (positive/negative). The interaction between time and the treatment groups and the interaction between the baseline of ADAS-cog and time were also included.

[2] = tested on: mild to moderate AD patients; test: Test Example 1: phase II placebo-controlled trial, ADCS-ADL change from baseline
Description: as §1, §2, §3
(§6) The ADCS-ADL score of the subject was evaluated at the baseline (before administration of investigational drug on the first day of administration) and after 52 weeks and the level of impairment was assessed based on the change from the baseline.
as §5

[3] = tested on: mild to moderate AD patients; test: Test Example 2: early phase II placebo-controlled trial, ADAS-cog change from baseline; conditions: for Change in ADAS-cog from baseline at week 52, least square means (95% confidence interval) / Change in ADAS-cog from baseline at week 52, difference from placebo group (95% confidence interval): MMSE 22 or less at screening
Description: (§7) Test Example 2 Multicenter Randomized Double-Blind Early Phase II Placebo-Controlled Trial for Assessing Effectiveness and Safety of Compound a in Mild to Moderate AD Patients
(§8) Patients were screened in a period from 28 days before treatment assignment to the assignment based on the following selection criteria. Patients matched (373 patients) were randomly divided into the following 2 groups and the trial was started.
(§9) • Patients who were probable AD and over or 50 years old or older and 90 years old or younger at the time of obtaining consent of screening. • Patients with an MMSE score of 15 to 24 at the time of screening • Patients with a Modified Hachinski Ischemia Scale score of 4 or less • Patients who have been treated with a donepezil hydrochloride for at least 6 months before the baseline and with a stable dose thereof for 3 months before the baseline. • Patients whose brain MRI or CT results match AD at the time of screening Organization of Groups: (1) Active drug group: 224 mg of a test compound (160 mg in terms of Compound A) was orally administered once a day for 52 weeks (176 patients) (2) Placebo group: placebo was orally administered once a day for 52 weeks (178 patients) Method of assessment: (1) ADAS-cog
as §4
(§10) Changes in the ADAS-cog score and the ADCS-ADL score after 52 weeks from the baseline were compared between the high dose group and the placebo group, and between the low dose group and the placebo group based on MMRM with a significance level of 5%. For models, fixed effects included the treatment groups and time, while covariates included the baseline of ADAS-cog or ADCS-ADL and the baseline of MMSE. The interaction between time and the treatment groups and the interaction between the baseline of ADAS-cog and time were also included. For the period from clinical diagnosis, the first day of administration of donepezil hydrochloride which was combined with Compound A was defined as the time of clinical diagnosis. Furthermore, to match the conditions with those of Test Example 1, the subject was patients with an MMSE score of 22 or less at the time of screening.

[4] = tested on: mild to moderate AD patients; test: Test Example 2: early phase II placebo-controlled trial, ADCS-ADL change from baseline; conditions: for Change in ADCS-ADL from baseline at week 52, least square means (95% confidence interval) / Change in ADCS-ADL from baseline at week 52, difference from placebo group (95% confidence interval): MMSE 22 or less at screening
Description: as §7, §8, §9, §6, §10

[5] = high dose group, more than 2.6 years from clinical diagnosis
[6] = high dose group, within 2.8 years from clinical diagnosis
[7] = high dose group, within 3 years from clinical diagnosis
[8] = high dose group, within 3.2 years from clinical diagnosis
[9] = high dose group, within 3.4 years from clinical diagnosis
[10] = high dose group, within 3.6 years from clinical diagnosis
[11] = high dose group, within 3.8 years from clinical diagnosis
[12] = high dose group, within 4.0 years from clinical diagnosis
[13] = high dose group, within 5.0 years from clinical diagnosis
[14] = high dose group, within 6.0 years from clinical diagnosis
[15] = low dose group (160 mg in terms of Compound A, oral once a day, 52 weeks), within 2.6 years from clinical diagnosis
[16] = low dose group (160 mg), more than 2.6 years from clinical diagnosis
[17] = low dose group (160 mg), total (all periods from clinical diagnosis)
[18] = low dose group (160 mg), within 2.6 years from clinical diagnosis
[19] = high dose group, total (all periods from clinical diagnosis)
[20] = low dose group (160 mg), total (all periods)

## OC1CN(CCCOCCc2ccc3sccc3c2)C1 [Compound A, 1-(3-(2-(1-benzothiophen-5-yl)ethoxy)propyl)azetidin-3-ol]
[1]; Test Example 1, all subject patients
  Changes in ADAS-cog from the baseline at week 52, Compound A group versus placebo group (in words): no statistically significant difference
[1]; Test Example 1, high dose group, patients within 2.6 years from clinical diagnosis of AD
  Changes in ADAS-cog from the baseline at week 52, Compound A high dose group versus placebo group (in words): statistically significant difference
[1]; Test Example 1, high dose group, periods 2.5 to 6 years from clinical diagnosis of AD
  Difference in ADAS-cog change between high dose group and placebo group, compared by periods from clinical diagnosis (in words): larger in patients whose period was shorter
[1]; Test Example 1, low dose group (160 mg), week 52
  Change in the ADAS-cog score, Compound A low dose group versus placebo group (in words): tended to be smaller than that in the placebo group
[1]; high dose group (160 mg 4 weeks then 320 mg 48 weeks in terms of Compound A, oral once a day), within 2.5 years from clinical diagnosis
  Change in ADAS-cog from baseline at week 52, least square means (95% confidence interval): 5.6
[1]; high dose group (160 mg 4 weeks then 320 mg 48 weeks, oral once a day), within 2.5 years from clinical diagnosis
  Change in ADAS-cog from baseline at week 52, difference from placebo group (95% confidence interval): −3.3
[1]; [5]
  Change in ADAS-cog from baseline at week 52, difference from placebo group (95% confidence interval): 1.8(−1.0, 4.6)
  Change in ADAS-cog from baseline at week 52, least square means (95% confidence interval): 8.4(6.3, 10.5)
[1]; [6]
  Change in ADAS-cog from baseline at week 52, difference from placebo group (95% confidence interval): −2.5
  Change in ADAS-cog from baseline at week 52, least square means (95% confidence interval): 6.2
[1]; [7]
  Change in ADAS-cog from baseline at week 52, difference from placebo group (95% confidence interval): −2.2
  Change in ADAS-cog from baseline at week 52, least square means (95% confidence interval): 6.1
[1]; [8]
  Change in ADAS-cog from baseline at week 52, difference from placebo group (95% confidence interval): −2.0
  Change in ADAS-cog from baseline at week 52, least square means (95% confidence interval): 6.4
[1]; [9]
  Change in ADAS-cog from baseline at week 52, difference from placebo group (95% confidence interval): −1.8
  Change in ADAS-cog from baseline at week 52, least square means (95% confidence interval): 6.4
[1]; [10]
  Change in ADAS-cog from baseline at week 52, difference from placebo group (95% confidence interval): −1.8
  Change in ADAS-cog from baseline at week 52, least square means (95% confidence interval): 6.7
[1]; [11]
  Change in ADAS-cog from baseline at week 52, difference from placebo group (95% confidence interval): −2.1
  Change in ADAS-cog from baseline at week 52, least square means (95% confidence interval): 6.5
[1]; [12]
  Change in ADAS-cog from baseline at week 52, difference from placebo group (95% confidence interval): −1.7
  Change in ADAS-cog from baseline at week 52, least square means (95% confidence interval): 6.6
[1]; [13]
  Change in ADAS-cog from baseline at week 52, difference from placebo group (95% confidence interval): −1.9
  Change in ADAS-cog from baseline at week 52, least square means (95% confidence interval): 6.5
[1]; [14]
  Change in ADAS-cog from baseline at week 52, difference from placebo group (95% confidence interval): −0.9
  Change in ADAS-cog from baseline at week 52, least square means (95% confidence interval): 7.2
[1]; [15]
  Change in ADAS-cog from baseline at week 52, least square means (95% confidence interval): 8.1 (6.0, 10.2)
[1]; [16]
  Change in ADAS-cog from baseline at week 52, difference from placebo group (95% confidence interval): 0.1 (−2.5, 2.8)
  Change in ADAS-cog from baseline at week 52, least square means (95% confidence interval): 6.8 (4.8, 8.7)
[1]; [17]
  Change in ADAS-cog from baseline at week 52, difference from placebo group (95% confidence interval): −0.5 (−2.4, 1.4)
  Change in ADAS-cog from baseline at week 52, least square means (95% confidence interval): 7.4 (6.0, 8.9)
[1]; [18]
  Change in ADAS-cog from baseline at week 52, difference from placebo group (95% confidence interval): −0.9 (−3.6, 1.8)
[2]; Test Example 1, high dose group
  Reduction in ADCS-ADL from the baseline at week 52 (in words): tended to be suppressed
[2]; Test Example 1, high dose group, week 52
  Tendency to suppress reduction in ADCS-ADL, patients within 2.6 years versus all patients (in words): more remarkable
[2]; high dose group (160 mg 4 weeks then 320 mg 48 weeks, oral once a day), within 2.6 years from clinical diagnosis
  Change in ADCS-ADL from baseline at week 52, least square means (95% confidence interval): −8.6(−11.2, −5.9)
[2]; [5]
  Change in ADCS-ADL from baseline at week 52, difference from placebo group (95% confidence interval): −0.9 (−4.7, 2.8)
  Change in ADCS-ADL from baseline at week 52, least square means (95% confidence interval): −11.6(−14.5, −8.8)
[2]; [19]
  Change in ADCS-ADL from baseline at week 52, difference from placebo group (95% confidence interval): 1.2(−1.3, 3.8)
  Change in ADCS-ADL from baseline at week 52, least square means (95% confidence interval): −10.1(−12.0, −8.1)
[2]; high dose group, within 2.6 years from clinical diagnosis
  Change in ADCS-ADL from baseline at week 52, difference from placebo group (95% confidence interval): 3.1(−0.4, 6.6)
[2]; [15]
  Change in ADCS-ADL from baseline at week 52, least square means (95% confidence interval): −11.7(−14.5, −9.0)
[2]; [16]
  Change in ADCS-ADL from baseline at week 52, difference from placebo group (95% confidence interval): 0.3(−3.2, 3.8)
  Change in ADCS-ADL from baseline at week 52, least square means (95% confidence interval): −10.4(−13.0, −7.8)
[2]; [17]
  Change in ADCS-ADL from baseline at week 52, difference from placebo group (95% confidence interval): 0.2(−2.3, 2.7)
  Change in ADCS-ADL from baseline at week 52, least square means (95% confidence interval): −11.0(−13.0, −9.1)
[2]; [18]
  Change in ADCS-ADL from baseline at week 52, difference from placebo group (95% confidence interval): 0.0(−3.6, 3.6)
[3]; Test Example 2, all subject patients
  Changes in ADAS-cog from the baseline at week 52, Compound A group versus placebo group (in words): no statistically significant difference
[3]; Test Example 2, low dose group (160 mg), within 2.6 years from clinical diagnosis of AD and MMSE score of 22 or less at screening
  Changes in ADAS-cog from the baseline at week 52, Compound A low dose group versus placebo group (in words): statistically significant difference
[3]; [15]
  Change in ADAS-cog from baseline at week 52, least square means (95% confidence interval): 1.3(−0.3, 4.7)
[3]; [16]
  Change in ADAS-cog from baseline at week 52, difference from placebo group (95% confidence interval): 1.7(−1.3, 4.7)
  Change in ADAS-cog from baseline at week 52, least square means (95% confidence interval): 3.0(0.8, 5.3)
[3]; [20]
  Change in ADAS-cog from baseline at week 52, difference from placebo group (95% confidence interval): −1.2(−3.0, 0.5)
  Change in ADAS-cog from baseline at week 52, least square means (95% confidence interval): 1.9(0.5, 3.2)
[3]; [18]
  Change in ADAS-cog from baseline at week 52, difference from placebo group (95% confidence interval): −2.6(−4.8, −0.5)
[4]; Test Example 2, low dose group (160 mg)
  Reduction in ADCS-ADL from the baseline at week 52 (in words): tended to be suppressed
[4]; Test Example 2, low dose group (160 mg), week 52
  Tendency to suppress reduction in ADCS-ADL, patients within 2.6 years versus all patients (in words): more remarkable
[4]; [15]
  Change in ADCS-ADL from baseline at week 52, least square means (95% confidence interval): −5.5(−7.8, −3.2)
[4]; [16]
  Change in ADCS-ADL from baseline at week 52, difference from placebo group (95% confidence interval): −3.5(−7.8, 0.8)
  Change in ADCS-ADL from baseline at week 52, least square means (95% confidence interval): −7.5(−10.8, −4.3)
[4]; [20]
  Change in ADCS-ADL from baseline at week 52, difference from placebo group (95% confidence interval): 0.5(−2.0, 3.0)
  Change in ADCS-ADL from baseline at week 52, least square means (95% confidence interval): −6.2(−8,1, −4.3)
[4]; [18]
  Change in ADCS-ADL from baseline at week 52, difference from placebo group (95% confidence interval): 2.6(−0.5, 5.7)
